Test results: US10273237B2, “Imidazopyridazine compounds useful as modulators of IL-12, IL-23 and/or IFN-α responses” (BRISTOL-MYERS SQUIBB COMPANY, priority 2013, dated 2019)
Values joined by “and” are separate entries in the source; they are usually repeats but may differ in a detail not shown here. Equal entries are not always repeated. Where two headings read alike, the source gives them in different places.

Legend:
[1] = biological target: T1, His-tagged protein corresponding to amino acids 575-869 of human Tyk2 (Homo sapiens, UniProt P29597); assay: Probe displacement assay (scintillation proximity, radiolabeled probe); format: binding; details: 2.5 nM Tyk2 (575-869), 40 nM [3H] probe, 30 minutes at room temperature
T1 construct: made in house
T1 sequence (P29597 with tags, fused parts or gaps): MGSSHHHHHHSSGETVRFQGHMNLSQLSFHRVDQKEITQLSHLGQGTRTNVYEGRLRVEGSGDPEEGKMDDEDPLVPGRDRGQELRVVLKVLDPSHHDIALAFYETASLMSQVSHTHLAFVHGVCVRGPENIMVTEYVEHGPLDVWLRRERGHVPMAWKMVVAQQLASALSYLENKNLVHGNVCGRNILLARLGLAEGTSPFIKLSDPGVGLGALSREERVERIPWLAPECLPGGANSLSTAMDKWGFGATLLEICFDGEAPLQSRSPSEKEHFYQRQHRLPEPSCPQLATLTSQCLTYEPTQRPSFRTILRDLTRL
Method: The preparation of radiolabeled probe, (R)—N-(1-(3-(8-methyl-5-(methylamino)-8H-imidazo[4,5-d]thiazolo[5,4-b]pyridin-2-yl)phenyl)ethyl)-2-([^3H]methylsulfonyl)benzamide, was performed as described below: […]

[2] = tested on: IL-23-stimulated Kit225 T cells with STAT-dependent luciferase reporter; assay: Kit225 T cell assay, STAT-dependent luciferase reporter, IL-23 stimulated; format: cell-based, human; details: read-out: IL-23 Kit225 Reporter, LE (IC50)
Procedure, shortened: (§1)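 Kit225 T cells carrying a stably integrated STAT-dependent luciferase reporter, in RPMI with 10% heat-inactivated FBS, stimulated with 20 ng/mL human recombinant IL-23 or 200 U/mL human recombinant IFNα for 5-6 h. Luciferase expression read by Steady-Glo luminescence.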

[3] = tested on: IFNα-stimulated Kit225 T cells with STAT-dependent luciferase reporter; assay: Kit225 T cell assay, STAT-dependent luciferase reporter, IFNα stimulated; format: cell-based, human; details: 5-6 hours, read-out: IFNa Kit225 Reporter, LE (IC50)
Procedure, shortened: as §1

[4] = Homo sapiens, KIT225, 20 ng/mL human recombinant IL-23, 5-6 hours
[5] = Homo sapiens, KIT225, 200 U/mL human recombinant IFNα
[6] = 200 U/mL human recombinant IFNα
[7] = 20 ng/mL human recombinant IL-23, 5-6 hours

| SMILES | EC50 [1] | IC50 [2, 4] | IC50 [3, 5] | IC50 [3, 6] | IC50 [2, 7] |
| --- | --- | --- | --- | --- | --- |
| CNc1cc(Nc2cccn(-c3ccc(C(F)(F)F)cc3)c2=O)nn2c(C(=O)NCC(C)(CO)CO)cnc12 [Example 132] | 14 nM | 400 nM | 320 nM | – | – |
| CNc1cc(Nc2cccn(-c3ccc(C(F)F)cc3)c2=O)nn2c(C(=O)NCC(C)(C)CO)cnc12 [Example 124] | 4 nM | 150 nM | 80 nM | – | – |
| CNc1cc(Nc2cccn(-c3cnccn3)c2=O)nn2c(C(=O)NCC(C)(C)CO)cnc12 [Example 109] | 4 nM | – | – | – | – |
| CNc1cc(Nc2cccn(-c3cccc(C(C)O)n3)c2=O)nn2c(C(=O)NC3CC3)cnc12 (stereo not shown) [Example 85] | 5 nM | 340 nM | 110 nM | – | – |
| CNc1cc(Nc2cccn(-c3ccccc3)c2=O)nn2c(C(=O)N[C@H]3CCCC[C@H]3O)cnc12 [Example 188] | 21 nM | 70 nM | 230 nM | – | – |
| CC[C@@H](C)NC(=O)c1cnc2c(NC)cc(Nc3cccn(-c4ccccn4)c3=O)nn12 [Example 74] | 9 nM | 170 nM | 110 nM | – | – |
| CNc1cc(Nc2cccn(-c3nccs3)c2=O)nn2c(C(=O)NC3CC3)cnc12 [Example 35] | 5 nM | 20 nM | 50 nM | – | – |
| CC[C@@H](C)NC(=O)c1cnc2c(NC)cc(Nc3cccn(-c4ccn(C)n4)c3=O)nn12 [Example 79] | 6 nM | 140 nM | 30 nM | – | – |
| CNc1cc(Nc2cccn(-c3cnc(C)cn3)c2=O)nn2c(C(=O)NCC(C)(C)CO)cnc12 [Example 6, N-(3-Hydroxy-2,2-dimethylpropyl)-8-(methylamino)-6-((1-(5-methylpyrazin-2-yl)-2-oxo-1,2-dihydropyridin-3-yl)amino)imidazo[1,2-b]pyridazine-3-carboxamide] | 15 nM | 70 nM | 140 nM | – | – |
| CNc1cc(Nc2cccn(-c3ccc(N4CCOCC4)cc3)c2=O)nn2c(C(=O)NC3(C#N)CC3)cnc12 [Example 140] | 14 nM | 190 nM | 150 nM | – | – |
| CNc1cc(Nc2cccn(C)c2=O)nn2c(C(=O)NCC(C)(C)C)cnc12 [Example 207] | 15 nM and 22 nM | – | 180 nM | 260 nM | – |
| CNc1cc(Nc2cccn(C)c2=O)nn2c(C(=O)NC(C)(C)C)cnc12 [Example 211] | 57 nM | 360 nM | 490 nM | – | – |
| CNc1cc(Nc2cccn(C3CCN(C(=O)c4ncc[nH]4)CC3)c2=O)nn2c(C(=O)NC3CC3)cnc12 [Example 245] | 7 nM | 290 nM | 260 nM | – | – |
| CNc1cc(Nc2cccn(-c3ccccn3)c2=O)nn2c(C(=O)NCc3nccs3)cnc12 [Example 190] | 23 nM | 260 nM | 290 nM | – | – |
| CNc1cc(Nc2cccn(-c3ccc(C(F)(F)F)cc3)c2=O)nn2c(C(=O)NCC(C)(C)CO)cnc12 [Example 136] | 11 nM | 170 nM | 80 nM | – | – |
| CNc1cc(Nc2cccn(-c3cccnn3)c2=O)nn2c(C(=O)NC(C)C)cnc12 [Example 106] | 13 nM | 180 nM | 160 nM | – | – |
| CNc1cc(Nc2cccn(-c3ccc(S(C)(=O)=O)cc3)c2=O)nn2c(C(=O)NC3CC3)cnc12 [Example 202] | 8 nM | 350 nM | 330 nM | – | – |
| CNc1cc(Nc2cccn(-c3cccc(C)n3)c2=O)nn2c(C(=O)NC3CC3)cnc12 [Example 46] | – | – | – | 160 nM | 360 nM |
| CNc1cc(Nc2cccn(C3CCC(N4CCOCC4)CC3)c2=O)nn2c(C(=O)NC3CCC3)cnc12 (stereo not shown) [Example 225] | – | – | – | 30 nM | 100 nM |
| CNc1cc(Nc2cccn(C3CCN(CC(F)F)CC3)c2=O)nn2c(C(=O)NC3CC3)cnc12 [Example 250] | – | 100 nM | 390 nM | – | – |
| CNc1cc(Nc2cccn(C(C)C)c2=O)nn2c(C(=O)NC3(C#N)CC3)cnc12 [Example 216] | – | – | – | 440 nM | 900 nM |
| CNc1cc(Nc2cccn(-c3cccc(C(C)(C)O)n3)c2=O)nn2c(C(=O)NC3CCC3)cnc12 [Example 77] | – | – | – | 30 nM | 20 nM |

| SMILES | EC50 [1] | IC50 [2, 4] | IC50 [3, 5] | IC50 [3, 6] | IC50 [2, 7] |
| --- | --- | --- | --- | --- | --- |
| CNc1cc(Nc2cccn(-c3ccc(C(=O)N(C)C)cc3)c2=O)nn2c(C(=O)NCC(C)(C)CO)cnc12 [compound 267] | – | 360 nM | 290 nM | – | – |
| CNc1cc(Nc2cccn(-c3ncc(C(F)(F)F)cn3)c2=O)nn2c(C(=O)NC3CC3)cnc12 [Example 175] | – | – | – | 110 nM | 310 nM |
| CNc1cc(Nc2cccn(-c3ccccc3)c2=O)nn2c(C(=O)NC3CCC(O)C3(C)C)cnc12 (stereo not shown) [Example 237] | – | – | – | 400 nM | 440 nM |
| CNc1cc(Nc2cccn(-c3ccon3)c2=O)nn2c(C(=O)NC3CCC3)cnc12 [Example 56] | – | – | – | 30 nM | 60 nM |
| CNc1cc(Nc2cccn(C)c2=O)nn2c(C(=O)N[C@H]3CCOC3)cnc12 [Example 58] | – | – | – | 970 nM | 90 nM |
| CNc1cc(Nc2ccnn(-c3ccccc3)c2=O)nn2c(C(=O)NC3CCC3)cnc12 [Example 8, N-Cyclobutyl-8-(methylamino)-6-((3-oxo-2-phenyl-2,3-dihydropyridazin-4-yl)amino)imidazo[1,2-b]pyridazine-3-carboxamide] | – | 670 nM | 380 nM | – | – |
| CNc1cc(Nc2cncn(-c3ccc(C)nn3)c2=O)nn2c(C(=O)NC3CCC3)cnc12 [Example 78] | – | – | – | 180 nM | 230 nM |
| CNc1cc(Nc2cccn(-c3ccc(C(C)O)cc3)c2=O)nn2c(C(=O)NC3CC3)cnc12 (stereo not shown) [Example 135] | – | – | – | 240 nM | 280 nM |
| CNc1cc(Nc2cccn(C3CCOC3)c2=O)nn2c(C(=O)NC3CCCC3)cnc12 (stereo not shown) [Example 222] | – | – | – | 130 nM | 290 nM |
| CNc1cc(Nc2cc(F)cn(C3CC3)c2=O)nn2c(C(=O)NC3(C#N)CC3)cnc12 [Example 51] | – | – | – | 220 nM | 160 nM |
| CNc1cc(Nc2cccn(C)c2=O)nn2c(C(=O)NCC(C)(C)CO)cnc12 [Example 117] | – | – | – | 150 nM | 240 nM |
| CNc1cc(Nc2cccn(-c3ccc(C#N)cc3)c2=O)nn2c(C(=O)NC3(C#N)CC3)cnc12 [Example 13] | – | – | – | 230 nM | 150 nM |
| CNc1cc(Nc2cccn(C3CCC(N4CCOCC4)CC3)c2=O)nn2c(C(=O)NC3CC3)cnc12 (stereo not shown) [Example 224] | – | – | – | 470 nM | 680 nM |
| CNc1cc(Nc2cccn(C(C)(C)C)c2=O)nn2c(C(=O)NC3CC3)cnc12 [Example 218] | – | – | – | 130 nM | 190 nM |
| CNc1cc(Nc2cccn(C3(C)CC3)c2=O)nn2c(C(=O)NC3(C#N)CC3)cnc12 [Example 162] | – | – | – | 250 nM | 650 nM |
| CNc1cc(Nc2cccn(-c3ccc(C)nn3)c2=O)nn2c(C(=O)N[C@@H]3C[C@@H]3F)cnc12 [Example 65] | – | – | – | 40 nM | 60 nM |
| CNc1cc(Nc2cccn(-c3ccn(C)n3)c2=O)nn2c(C(=O)NC(C)C)cnc12 [Example 108] | – | – | – | 80 nM | 210 nM |
| CNc1cc(Nc2cccn(-c3ncccn3)c2=O)nn2c(C(=O)NC3CCCC3)cnc12 [Example 170] | – | – | – | 370 nM | 190 nM |
| CNc1cc(Nc2cccn(C)c2=O)nn2c(C(=O)NC3CCCC3)cnc12 [Example 208] | – | – | – | 60 nM | 80 nM |
| CNc1cc(Nc2cccn(-c3ccc(N4CCOCC4)cc3)c2=O)nn2c(C(=O)NC3CC3)cnc12 [Example 139] | – | – | – | 190 nM | 250 nM |
| CCC(CC)NC(=O)c1cnc2c(NC)cc(Nc3cccn(-c4ccc(C)nn4)c3=O)nn12 [Example 233] | – | – | – | 280 nM | 720 nM |
| CNc1cc(Nc2cccn(-c3cccc(C)n3)c2=O)nn2c(C(=O)NC3CCC3)cnc12 [Example 47] | – | – | – | 40 nM | 110 nM |
